Structures can show the parent of a compound that is named as a salt.

For one data set, the system named is Escherichia coli. As to the kind of experiment: minimum inhibitory concentration, antibacterial spectrum (Table I). The data set is classed as cell-based. Conditions: 32 P.P.M. On the procedure: (§1) The compounds listed in Table I below were tested for their antibacterial spectrum by the method of:
(§2) Silverblatt, F. and M. Turck, 1969. Antimicrobial Agents and Chemothreapy; 1968, p. 279-285.
(§3) Wallace, J. F., E. Atlas, D. M. Bear, N. K. Brown, H. Clark and M. Turk, 1971. Antimicrobial Agents and Chemotherapy; 1970, p. 223-266.

The next data set concerns Pseudomonas aeruginosa. The data set is described as above. Conditions: 32 P.P.M. Type of data set: cell-based. On the procedure: as §1, §2, §3
In another data set the test system is Staphylococcus aureus. The data set is described as above. The data set is classed as cell-based. Conditions: 32 P.P.M. The procedure:
as §1, §2, §3

A further data set has as its system Diplococcus pneumoniae. As to the kind of experiment: minimum inhibitory concentration / in vitro spectrum of activity. Type of data set: cell-based. To be noted: Streptococcus pneumoniae, footnote of Table I. The procedure: as §1, §2, §3
For another data set, the system named is Klebsiella pneumonia. The description is as above. Type of data set: cell-based. To be noted: Klebsiella pneumoniae, footnote of Table I. The procedure:
as §1, §2, §3

For a further data set, the system named is Salmonella typhosa. Described as above. Type of data set: cell-based. To be noted: Salmonella enterica, read-out: minimum inhibitory concentration (MIC). On the procedure: as §1, §2, §3
The next data set concerns Streptococcus pyogenes. The description is as above. Type of data set: cell-based. To be noted: footnote of Table I. The procedure:
as §1, §2, §3

Data set [1] can be described thus: LD50 upon oral administration to mice. Conditions: mouse, in vivo.
The subject of the next data set is Candida albicans. As to the kind of experiment: minimum inhibitory concentration, antimicrobial spectrum (Table I). To be noted: 32 P.P.M. The data set is classed as cell-based. The procedure: as §1, §2, §3

Consider `N=C(NCCCCCCNC(=N)Nc1nc2ccccc2[nH]1)Nc1nc2ccccc2[nH]1` [Compound 1024, N'-N"-bis-[2-benzimidazole]-2,9-diazadecane diimidamide dihydrochloride], for which the MIC in the data set with Escherichia coli was found to be 4 µg/mL; in the data set with Pseudomonas aeruginosa it was 16 µg/mL; in the data set on Staphylococcus aureus it was 4 µg/mL; with Diplococcus pneumoniae, 2 µg/mL; against Klebsiella pneumonia it was 500 µg/mL; in the data set with Salmonella typhosa, 4 µg/mL. In the data set with Streptococcus pyogenes, this compound returned an MIC of 1 µg/mL. For the same compound, in [1], the LD50 came to 4000 mg/kg.

Regarding `N=C(NCCCCCCNC(=N)Nc1nc2cc(Cl)c(S(N)(=O)=O)cc2[nH]1)Nc1nc2cc(Cl)c(S(N)(=O)=O)cc2[nH]1` [Compound 1045, N'-N"-bis-[2-(5'-chloro-6'-sulfamylbenzimidazole)]-2,9-diazadecane diimidamide dihydrochloride], the MIC in the data set on Escherichia coli stood at 8 µg/mL.

Turning to `N=C(NCCCCCCCNC(=N)Nc1nc2ccccc2[nH]1)Nc1nc2ccccc2[nH]1` [Compound 1046, N'-N"-bis-[2-benzimidazole]-2,10-diazaundecane diimidamide dihydrochloride], the MIC with Escherichia coli is 8 µg/mL; against Staphylococcus aureus, 8 µg/mL; against Candida albicans it was 16 µg/mL.

`N=C(NCCNC(=N)Nc1nc2ccccc2[nH]1)Nc1nc2ccccc2[nH]1` [Compound 1069, N'-N"-bis[2-benzimidazole]-2,5-diazahexane diimidamide dihydrochloride] gave an MIC against Escherichia coli of 32 µg/mL.

On to `Cc1ccc2nc(NC(=N)NCCNC(=N)Nc3nc4ccc(C)cc4[nH]3)[nH]c2c1` [Compound 1072, N'-N"-bis-[2-(6-methylbenzimidazole)]-2,5-diazahexane diimidamide dihydrochloride monohydrate], for which the MIC in the data set with Escherichia coli came to 4 µg/mL; against Pseudomonas aeruginosa, 16 µg/mL; in the data set on Staphylococcus aureus, 16 µg/mL.

Take `Cc1ccc2nc(NC(=N)NCCCCCNC(=N)Nc3nc4ccc(C)cc4[nH]3)[nH]c2c1` [Compound 1074, N'-N"-bis-[2-(6-methylbenzimidazole)]-2,8-diazanonane diimidamide dihydrochloride hemipentahydrate]: the MIC in the data set with Escherichia coli was determined as 4 µg/mL; in the data set on Pseudomonas aeruginosa it was 8 µg/mL; against Staphylococcus aureus, 8 µg/mL; in the data set with Candida albicans, 16 µg/mL.

Take `N=C(NCCCCCNC(=N)Nc1nc2ccc(Cl)cc2[nH]1)Nc1nc2ccc(Cl)cc2[nH]1` [Compound 1075, N'-N"-bis-[2-(6-chlorobenzimidazole)]-2,8,diazanonane diimidamide dihydrochloride hydrate]: the MIC against Escherichia coli and with Staphylococcus aureus was 2 µg/mL each time.

`N=C(NCCCCCNC(=N)Nc1nc2ccccc2[nH]1)Nc1nc2ccccc2[nH]1` [Compound 1079, N'-N"-bis-[2-benzimidazole]-2,8-diazanonane diimidamide dihydrochloride dihydrate]: the MIC in the data set on Escherichia coli and in the data set on Staphylococcus aureus was 8 µg/mL each time.

`N=C(NCCCCCCCCNC(=N)Nc1nc2ccccc2[nH]1)Nc1nc2ccccc2[nH]1` [Compound 1080, N'-N"-bis-[2-benzimidazole]-2,11-diazadodecane diimidamide dihydrochloride dihydrate]: the MIC against Escherichia coli and in the data set on Staphylococcus aureus was 1 µg/mL in each case.

For `Cc1ccc2nc(NC(=N)NCCCCCCNC(=N)Nc3nc4ccc(C)cc4[nH]3)[nH]c2c1` [Compound 1081, N'-N"-bis-[2-(6-methyl-benzimidazole)]-2,9-diazadecane diimidamide dihydrochloride dihydrate], the MIC came out at 1 µg/mL against Escherichia coli, 8 µg/mL in the data set on Pseudomonas aeruginosa, 1 µg/mL in the data set on Staphylococcus aureus and 8 µg/mL against Candida albicans.

`N=C(NCCNC(=N)Nc1nc2ccc(Cl)cc2[nH]1)Nc1nc2ccc(Cl)cc2[nH]1` [Compound 1105, N'-N"-bis-[2-(6-chlorobenzimidazole)]-2,5-diazahexanediimidamide dihydrochloride sesquihydrate] registered an MIC against Staphylococcus aureus of 5 µg/mL.
